Tests used:
Assay type in all cases: cell-based
[1] = system: MCF-7 cells; assay: Breast Cancer Cell Viability Assay (MCF7 Viability Assay, CellTiter-Glo); conditions: 5 days' compound exposure; for IC50: Homo sapiens, MCF7, 120 h
Protocol: MCF-7 cells were adjusted to a concentration of 20,000 cells per mL in RPMI containing 10% FBS and 20 mM HEPES. 16 microliters of the cell suspension (320 cells) was added to each well of a 384 well plate, and the cells were incubated overnight to allow the cells to adhere. The following day an eleven point, serial semilog dilution of each compound was added to the cells in 16 μL at a final concentration ranging from 0.3-0.000003 μM. After 5 days' compound exposure, 16 μL of CellTiter-GLo (Promega, Madison Wis.) was added to the cells the relative luminescence units (RLUs) of each well was determined. CellTiter-Glo added to 32 μL of medium without cells was used to obtain a background value. The Percent viability of each sample was determined as follows: (RLU sample-RLU background/RLU untreated cells-RLU background)×100=% viability.

[2] = target: T1, ER-α (Homo sapiens, UniProt P03372); assay: ER-α in Cell Western Assay (SP1); conditions: MCF-7 cells, SP1 rabbit monoclonal Ab, 4 or 24 hr post compound addition, read-out: ER In-Cell Western Assay (SP1); for Emax: MCF7, Max Response; for DC50: IC50
T1 construct: endogenous in cells; host or cells: MCF-7
T1 sequence (P03372 1-595): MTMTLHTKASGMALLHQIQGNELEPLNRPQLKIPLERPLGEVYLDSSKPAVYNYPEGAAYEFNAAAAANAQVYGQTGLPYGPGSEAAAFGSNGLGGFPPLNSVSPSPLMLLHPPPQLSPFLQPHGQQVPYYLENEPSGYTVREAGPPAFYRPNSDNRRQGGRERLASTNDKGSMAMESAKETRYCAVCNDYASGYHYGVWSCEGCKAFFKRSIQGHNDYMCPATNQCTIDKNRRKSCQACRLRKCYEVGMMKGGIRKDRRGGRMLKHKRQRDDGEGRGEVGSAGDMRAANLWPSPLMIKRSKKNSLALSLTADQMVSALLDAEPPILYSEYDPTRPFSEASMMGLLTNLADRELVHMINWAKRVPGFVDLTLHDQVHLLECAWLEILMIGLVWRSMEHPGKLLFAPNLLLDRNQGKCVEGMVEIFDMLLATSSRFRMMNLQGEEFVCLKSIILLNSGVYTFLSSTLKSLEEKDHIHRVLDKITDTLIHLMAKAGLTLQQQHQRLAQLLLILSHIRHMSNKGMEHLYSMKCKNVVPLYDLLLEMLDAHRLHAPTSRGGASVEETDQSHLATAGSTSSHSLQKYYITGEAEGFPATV
Protocol: (§1) MCF-7 cells were adjusted to a concentration of 200,000 cells per mL in RPMI containing 10% charcoal-stripped FBS and 20 mM HEPES. 16 microliters of the cell suspension (3200 cells) was added to each well of a poly-D-lysine 384 well plate, and the cells were incubated overnight to allow the cells to adhere. The following day an eleven point, serial semilog dilution of each compound was added to the cells in 16 μL at a final concentration ranging from 0.3-0.000003 μM. At 4 or 24 hr post compound addition, the cells were fixed (10% formalin in PBS) for 20 minutes. Cells were permeabalized in PBS 0.1% Triton and blocked with LICOR blocking buffer (50 μl/well, 90′). The wells were then incubated overnight at 4° C. with SP1 rabbit monoclonal Ab (Thermo Scientific) diluted 1:1000 in LICOR blocking buffer/0.1% Tween-20. Wells which were treated with blocking buffer with Tween but no antibody were used as a background control. Wells were washed with 0.1% Tween-20/PBS and then incubated in goat anti-rabbit IRDye™ 800CW (LICOR Inc.; 1:1000) and DRAQ5 DNA dye (1:2000 for 2 mM stock) diluted in LICOR blocking buffer containing 0.1% Tween-20 and 0.01% SDS for 60 minutes. Cells were washed (50 μl/well, 5′ each) in 0.1% Tween-20/PBS. Plates were scanned on a LICOR Odyssey infrared imaging system. Integrated intensities in the 800 nm channel and 700 nm channel were measured to determine levels of ER and DNA respectively. Percent ER levels were determined as follows: (Integrated intensity 800 nm sample/integrated intensity 700 nm sample)/(Integrated intensity 800 nm untreated cells/integrated intensity 700 nm untreated cells)×100=% ER levels.

[3] = target: T1, ER-α; assay: ER-α in Cell Western Assay (ER1D5); conditions: MCF-7 cells, ER1D5 antibody, 4 or 24 hr post compound addition, read-out: ER In-Cell Western Assay (ER1D5); for Emax: MCF7, Max Response; for DC50: IC50
Protocol: as §1, with “with ER1D5 (Santa Cruz Biotechnology)” for “with SP1 rabbit monoclonal Ab (Thermo Scientific)”, “diluted 1:100” for “diluted 1:1000”, “goat anti-mouse” for “goat anti-rabbit”

| SMILES | MCF7 Viability Assay Max Response [1] | IC50 [1] | Emax [2] | DC50 [2] | Emax [3] | DC50 [3] |
| --- | --- | --- | --- | --- | --- | --- |
| C[C@@H]1CCN([C@@H](C)COc2ccc(C3c4ccc(O)c(F)c4CC3c3ccc(O)cc3)cc2)C1 (stereo partly drawn) [Example 5, 4-Fluoro-2-(4-hydroxyphenyl)-1-(4-((S)-2-((R)-3-methylpyrrolidin-1-yl)propoxy)phenyl)-2,3-dihydro-1H-inden-5-ol] | ++ (++ = a single % value ≧50%) | ≤ 1 nM | ≥ 85% | ≤ 1 nM |  |  |
| Oc1ccc2c(c1)CC(c1ccccc1)C2c1ccc(OCCN2CCCC2)cc1 (stereo not drawn) [Example 7, 2-Phenyl-1-(4-(2-(pyrrolidin-1-yl)ethoxy)phenyl)-2,3-dihydro-1H-inden-5-ol] | ++ (++ = a single % value ≧50%) | > 1 nM | 60 to 85% | ≤ 1 nM |  |  |
| C[C@@H]1CCN([C@@H](C)COc2ccc(C3c4ccc(O)cc4CC3c3ccccc3)cc2)C1 (stereo partly drawn) [Example 4, 1-(4-((S)-2-((R)-3-Methylpyrrolidin-1-yl)propoxy)phenyl)-2-phenyl-2,3-dihydro-1H-inden-5-ol] | ++ (++ = a single % value ≧50%) | ≤ 1 nM | ≥ 85% | ≤ 1 nM | ≥ 65% | ≤ 1 nM |
| C[C@@H]1CCN([C@@H](C)COc2ccc(C3c4ccc(O)cc4CC3c3ccc(F)cc3)cc2)C1 (stereo partly drawn) [Example 6, 2-(4-Fluorophenyl)-1-(4-((S)-2-((R)-3-methylpyrrolidin-1-yl)propoxy)phenyl)-2,3-dihydro-1H-inden-5-ol] | ++ (++ = a single % value ≧50%) | > 1 nM | ≥ 85% | ≤ 1 nM |  |  |
| Oc1ccc(C2Cc3cc(O)ccc3C2c2ccc(OCCN3CCCC3)cc2)cc1 (stereo not drawn) [Example 1, 2-(4-Hydroxyphenyl)-1-(4-(2-(pyrrolidin-1-yl)ethoxy)phenyl)-2,3-dihydro-1H-inden-5-ol] | ++ (++ = a single % value ≧50%) | ≤ 1 nM | 60 to 85% | ≤ 1 nM | 40 to 65% | ≤ 1 nM |
| C[C@@H]1CCN([C@@H](C)COc2ccc(C3c4ccc(O)cc4CC3c3cccc(O)c3)cc2)C1 (stereo partly drawn) [Example 3, 2-(3-Hydroxyphenyl)-1-(4-((S)-2-((R)-3-methylpyrrolidin-1-yl)propoxy)phenyl)-2,3-dihydro-1H-inden-5-ol] | ++ (++ = a single % value ≧50%) | ≤ 1 nM | ≥ 85% | ≤ 1 nM | ≥ 65% | ≤ 1 nM |
| C[C@@H]1CCN([C@@H](C)COc2ccc(C3c4ccc(O)cc4CC3c3ccc(O)cc3)cc2)C1 (stereo partly drawn) [Example 2, 2-(4-Hydroxyphenyl)-1-(4-((S)-2-((R)-3-methylpyrrolidin-1-yl)propoxy)phenyl)-2,3-dihydro-1H-inden-5-ol] | ++ (++ = a single % value ≧50%) | ≤ 1 nM | ≥ 85% | ≤ 1 nM | ≥ 65% | ≤ 1 nM |

Reference: patent publication US8853423B2, “Indane estrogen receptor modulators and uses thereof” (Seragon Pharmaceuticals, Inc., priority 2010, dated 2014)
